Measured values taken from BindingDB's records for doi:10.7270/Q2M61HQ8 (Southern Research Specialized Biocontainment Screening …, 2010).

Biological target: Large T antigen (Simian virus 40, UniProt P03070)
Experiment: SV40 large T antigen inhibitors, biochemical (AID 1903)

Sequence of Large T antigen (P03070 whole entry): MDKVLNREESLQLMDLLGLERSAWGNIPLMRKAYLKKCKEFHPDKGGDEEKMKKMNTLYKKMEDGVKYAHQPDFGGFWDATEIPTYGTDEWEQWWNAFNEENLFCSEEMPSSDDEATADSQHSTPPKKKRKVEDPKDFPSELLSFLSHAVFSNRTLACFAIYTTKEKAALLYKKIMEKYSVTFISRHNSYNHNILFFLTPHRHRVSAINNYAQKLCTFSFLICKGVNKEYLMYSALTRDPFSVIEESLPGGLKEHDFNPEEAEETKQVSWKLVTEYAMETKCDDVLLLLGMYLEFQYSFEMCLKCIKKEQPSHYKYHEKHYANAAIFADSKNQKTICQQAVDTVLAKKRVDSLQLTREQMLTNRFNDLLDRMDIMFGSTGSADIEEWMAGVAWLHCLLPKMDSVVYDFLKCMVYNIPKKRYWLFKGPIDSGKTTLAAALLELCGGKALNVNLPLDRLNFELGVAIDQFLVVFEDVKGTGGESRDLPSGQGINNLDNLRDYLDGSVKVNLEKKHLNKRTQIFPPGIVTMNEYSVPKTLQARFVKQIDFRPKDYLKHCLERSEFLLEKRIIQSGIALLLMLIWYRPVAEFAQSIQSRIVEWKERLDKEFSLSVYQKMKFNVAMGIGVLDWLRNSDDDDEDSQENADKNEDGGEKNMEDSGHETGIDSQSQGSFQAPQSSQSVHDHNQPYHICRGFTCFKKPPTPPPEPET

Row | SMILES | IC50 [µM]
1 | Cc1ccc(Nc2oc3cc(=O)ccc-3cc2C(N)=O)cc1 [2-(4-methylanilino)-7-oxochromene-3-carboxamide] | 33.8
2 | O=C1CCCC(=O)C1=CNc1ccc(O)cc1 [2-[(4-hydroxyanilino)methylidene]cyclohexane-1,3-dione] | 12.3
3 | N#CC1C(=N)C2=C(N3CCCCC3)CCCC2C1(C#N)C#N (stereo unspecified) [3-Amino-4-piperidin-1-yl-5,6,7,7a-tetrahydro-indene-1,1,2-tricarbonitrile] | 9.99
4 | O=C1CCCC2=Nc3[nH]c(=S)[nH]c(=O)c3C(c3ccc(Br)cc3)C12 (stereo unspecified) [5-(4-bromophenyl)-2-thioxo-2,3,5,8,9,10-hexahydropyrimido[4,5-b]quinoline-4,6(1H,7H)-dione] | 48.1
5 | CCN(CC)CCN1C(=O)C(=O)C(C(=O)c2ccc(C)cc2)C1c1cccnc1 (stereo unspecified) [(4E)-1-[2-(diethylamino)ethyl]-4-[hydroxy-(4-methylphenyl)methylidene]-5-(3-pyridinyl)pyrrolidine-2,3-dione] | 18.9
6 | CN(C)c1ccc(N=CCC(=O)c2ccccc2)cc1 [(E)-3-[4-(dimethylamino)anilino]-1-phenyl-2-propen-1-one] | 5.19
7 | Cc1cc(-c2nc3c4c5c(sc4nc(=O)n3[nH]2)CCC5)c(C)o1 [MLS000048351] | 24.8

Now from value to compound:

Row | IC50 [µM] | SMILES
8 | 4.14 | Oc1ccc(-c2nc3c[nH]ccn-3c2=Nc2ccc3c(c2)OCCO3)cc1 [MLS000116162]
9 | 9.21 | CN(C)c1ccc(NC(=O)c2cccc(-n3c(O)ccc3O)c2)cc1 [N-[4-(dimethylamino)phenyl]-3-(2,5-dioxopyrrolidin-1-yl)benzamide]
10 | 5.53 | CC1(C)CC(=O)C(=CNc2ccc(O)cc2)C(=O)C1 [SMR000024722]
11 | 5.05 | COc1cc(-c2nc3c[nH]ccn-3c2=Nc2ccccc2)ccc1O [SMR000093145]
